According to patent US9585905B2, “Sweet taste receptor antagonist compositions” (Four LLC, priority 2014, dated 2017):
Entries after “also recorded” stand apart in the source; their conditions may differ. Like-named read-outs stand apart in the source and are kept apart here.

How the values were obtained:
[1] = test system: sweet taste (10% sucrose reference); experiment: Duration of sweet taste blockade: sensory panelist rates sweetness intensity (SI) of 10% sucrose after 5 min oral exposure to sample; type: in vivo, human; conditions: for SI: 0-10 scale, 10% sucrose=10; for sweet taste inhibition following exposure of the oral cavity (in words): in vivo
Procedure: A standard method was developed to quantify the duration of sweet taste blockade for the gymnemic acid compositions of the present invention. […] In all cases, sucrose was used as the sweetener in sweet taste blockade quantification. Thus, 10%, 8%, 6%, 4%, and 2% (w/v) sucrose solutions in reverse osmosis (RO) purified water were freshly prepared and, at the beginning of each experiment, 15 mL samples of each sucrose solution were used to calibrate sensory panelist on sweetness intensity. The sensory panelist is described as a person with training in sensory evaluation with at least 1 year of experience as a sensory panelist in the area of gustatation, and preferably with training in descriptive analysis. Standard scaling methodology was used for quantification of sweetness intensity (SI) on the following scale: • 10% sucrose=10, • 8% sucrose=8, • 6% sucrose=6, • 4% sucrose=4, • 2% sucrose=2, and • 0% sucrose=0.
Following panelist calibration with the sucrose reference standards, the panelist rinsed their mouth with 15 mL RO water and the sweetness inhibitor sample in 15 mL RO water was then immediately taken into the mouth and gently agitated for 5 minutes. The sweet taste inhibitor sample was then expectorated and a 15 mL sample of the 10% sucrose reference solution was then immediately re-tasted, perceived SI within 15 seconds was rated on the 0-10 scale, the sample expectorated, and the mouth rinsed vigorously with 15 mL RO water. The 10% sucrose sample was then re-tasted every 15 min and SI rated. The panelist was asked to make comments on the observations of non-sweet taste attributes at each sucrose reference tasting interval.

[2] = test system: bitter taste of bitter compounds (quinine, denatonium benzoate, tetralone, sucrose octaacetate, pseudoephedrine, dextromethorphan); conditions: cited from earlier work
[3] = 10% sucrose re-tasted at 15 min
[4] = 10% sucrose re-tasted at 30 min
[5] = 10% sucrose re-tasted at 45 min
[6] = 10% sucrose re-tasted at 60 min
[7] = 10% sucrose re-tasted at 75 min
[8] = 10% sucrose re-tasted at 90 min
[9] = 10% sucrose re-tasted at 105 min
[10] = 10% sucrose re-tasted at 120 min
[11] = 10% sucrose tasted at 0 min after expectoration of sample (in 15 mL RO water, held 5 min)

COc1ccc(OC(C)C(=O)O)cc1 (stereo not drawn) [Lactisole]
SI [1, 3]: 10
SI [1, 4]: 10
SI [1, 5]: 10
SI [1, 6]: 10
SI [1, 7]: 10
SI [1, 8]: 10
SI [1, 9]: 10
SI [1, 10]: 10
SI [1, 11]: 12
sweet taste inhibition following exposure of the oral cavity (in words) [1]: no sweet taste inhibition was observed; also recorded: caused no sweetness inhibition following expectoration

O=S(=O)([O-])[O-].[Zn+2] [zinc sulfate]
bitterness inhibitory activity ([2]; against denatonium benzoate): effective bitterness inhibitor
bitterness inhibitory activity ([2]; against dextromethorphan): no significant bitterness inhibitory activity
bitterness inhibitory activity ([2]; against pseudoephedrine): no significant bitterness inhibitory activity
bitterness inhibitory activity ([2]; against quinine): effective bitterness inhibitor
bitterness inhibitory activity ([2]; against sucrose octaacetate): no significant bitterness inhibitory activity
bitterness inhibitory activity ([2]; against tetralone): effective bitterness inhibitor
inhibition of the bitterness of quinine hydrochloride (QHCl) ([2]; up to): up to 70%

B1: Miraculin (protein, UniProt P13087 30-220, looked up)
Miraculin: DSAPNPVLDIDGEKLRTGTNYYIVPVLRDHGGGLTVSATTPNGTFVCPPRVVQTRKEVDHDRPLAFFPENPKEDVVRVSTDLNINFSAFMPCRWTSSTVWRLDKYDESTGQYFVTIGGVKGNPGPETISSWFKIEEFCGSGFYKLVFCPTVCGSCKVKCGDVGIYIDQKGRRRLALSDKPFAFEFNKTVYF
SI [1, 3]: 10
SI [1, 4]: 10
SI [1, 5]: 10
SI [1, 6]: 10
SI [1, 7]: 10
SI [1, 8]: 10
SI [1, 9]: 10
SI [1, 10]: 10
SI [1, 11]: 10
sweet taste inhibition following exposure of the oral cavity (in words) [1]: No sweet taste inhibitory effect was observed
